Measurements from patent publication US20210052529A1, “PHARMACEUTICAL COMPOSITIONS COMPRISING DICARBOXYLIC ACIDS AND THEIR THERAPEUTIC APPLICATIONS” (Cura Therapeutics, LLC, priority 2018, published 2021).
Where “and” joins values, the source holds several entries; their conditions need not be identical. Equal values may be shown once. Read-outs that look alike come from different tables or passages of the source.

Key:
[1] = type: in vitro ADME, human; settings: for Mean Height / % Remaining: human, 1 μM; for % Remaining: plasma
Description: Compound B1 was spiked directly into an individual lot of fresh human plasma, with sodium heparin as the anticoagulant, such that the final assay concentration of the compound was 1.00 μM. After incubation at room temperature for 0, 0.5, 1, 2, and 4 hours, samples were removed and aliquoted for analysis. Valacyclovir was used as a positive control. The plasma samples containing a test compound were processed by protein precipitation.
A primary 0.500 mM stock solution of compound B1 was prepared in either acetonitrile or acetonitrile:water (1:1, v/v). A 0.200 mM working stock was made from the primary stock in acetonitrile:water (1:1, v/v), which was used in the human plasma stability study. The primary and working stock solutions were stored at −20° C. when not in use. When it was used in the assay, the working stock was kept at room temperature for as short a time as possible.
The human plasma stability study was initiated by adding 5.00 μL of compound B1 stock solution to 0.995 mL of human plasma (sodium heparin) in a 1.7-mL snap tube. Time zero points were generated by immediately removing duplicate 50.0 μL aliquots of plasma after initiating each incubation and quenching in 150 μL of methanol. The plasma incubation tubes were capped and remained at room temperature between time points.
After 0.5, 1, 2, and 4 hours of incubation, duplicate 50.0 μL aliquots of plasma were removed and placed into the extraction tubes containing 150 μL of methanol. Each time point was immediately extracted by vortex mixing, centrifuged and the supernate removed to HPLC vial for analysis. After extraction of all samples, the extracts were analyzed by LC/MS/MS.
LC/MS/MS analysis of the incubation solutions was conducted by initial separation of the test compound peak using chromatography prior to detection by the mass spectrometer. The LC/MS system was comprised of a HPLC coupled with a TQS-Micro or Quattro Premier. The mobile phase was nebulized using heated nitrogen in a Z-spray source/interface set to electrospray in either positive ionization mode or negative ionization mode. The ionized compounds were detected using MS/MS. The data was acquired using MassLynx.

[2] = Pharmacokinetic study in rats; type: in vivo
Description: A pharmacokinetic study on compound B1 was carried out in rats.

[3] = Compound concentration in the CSF of rats; type: in vivo
Description: Compound B1 in the CSF of the rats was also analyzed. The results are shown in Table 4 below wherein BQL stands for below the quantifiable limit of 2.0 ng/mL.

O=C(O)c1ccc(NC(=O)[C@@H]2CCC[C@H](C(=O)Nc3ccc(C(=O)O)cc3)C2)cc1 [B1, 4,4′-(((1R,3S)-cyclohexane-1,3-dicarbonyl)bis(azanediyl))dibenzoic acid]
Metabolism in fresh human plasma [1]: not significantly metabolized | Mean Height ([1]; 0 h): 9,610 | Mean Height ([1]; 0.5 h): 9,430 | Mean Height ([1]; 1 h): 9,330 | Mean Height ([1]; 2 h): 9,610 | Mean Height ([1]; 4 h): 9,000 | % Remaining ([1]; 0 h): 100% | % Remaining ([1]; 0.5 h): 98.1% | % Remaining ([1]; 1 h): 97.1% | % Remaining ([1]; 2 h): 100% | % Remaining ([1]; 4 h): 93.7% | AUCINF/Dose ([2]; IV): 2950 | CL or CL/F ([2]; IV): 0.288 L/h/kg | HL ([2]; IV): 1.9 h | AUCINF/Dose ([2]; PO): 43 | HL ([2]; PO): 14 h | AUC(0-inf) ([2]; rat, in vivo, 1 mg/kg, IV): 2.95 µg·h/mL | AUC(0-t) ([2]; rat, in vivo, 1 mg/kg, IV): 2.95 µg·h/mL | Cmax ([2]; rat, in vivo, 1 mg/kg, IV): 3.98 µg/mL | AUC(0-inf) ([2]; rat, in vivo, 10 mg/kg, PO): 0.431 µg·h/mL | AUC(0-t) ([2]; rat, in vivo, 10 mg/kg, PO): 0.267 µg·h/mL | Cmax ([2]; rat, in vivo, 10 mg/kg, PO): 0.029 µg/mL | Tmax ([2]; rat, in vivo, 10 mg/kg, PO): 2 h | bioavailability ([2]; rat, in vivo, 10 mg/kg, PO): 1.25% | CL/F ([2]; rat, in vivo, 10 mg/kg, PO, read-out: CL or CL/F): 23.2 L/h/kg | CSF Concentration ([3]; IV, 0.00 h, individual animals): BQL (below the quantifiable limit of 2.0 ng/mL) | CSF Concentration ([3]; IV, 0.5 h, individual animals): 26 ng/mL and 17 ng/mL and 36 ng/mL | CSF Concentration ([3]; IV, 1.0 h, individual animals): 51 ng/mL and 391 ng/mL and 17 ng/mL | CSF Concentration ([3]; IV, 2.0 h, individual animals): 33 ng/mL and 27 ng/mL | CSF Concentration ([3]; IV, 4.0 h, individual animals): 10 ng/mL and 21 ng/mL and 4.5 ng/mL | CSF Concentration ([3]; IV, 8.0 h, individual animals): 1.8 ng/mL | CSF Concentration ([3]; IV, 12 h, individual animals): BQL (below the quantifiable limit of 2.0 ng/mL) | CSF Concentration ([3]; PO, 0.00 h, individual animals): BQL (below the quantifiable limit of 2.0 ng/mL) | CSF Concentration ([3]; PO, 0.5 h, individual animals): BQL (below the quantifiable limit of 2.0 ng/mL) | CSF Concentration ([3]; PO, 1.0 h, individual animals): BQL (below the quantifiable limit of 2.0 ng/mL) | CSF Concentration ([3]; PO, 2.0 h, individual animals): BQL (below the quantifiable limit of 2.0 ng/mL) | CSF Concentration ([3]; PO, 4.0 h, individual animals): BQL (below the quantifiable limit of 2.0 ng/mL) | CSF Concentration ([3]; PO, 8.0 h, individual animals): BQL (below the quantifiable limit of 2.0 ng/mL) | CSF Concentration ([3]; PO, 12 h, individual animals): BQL (below the quantifiable limit of 2.0 ng/mL) | concentration at 0.5 h ([3]; rat, CSF, iv, 0.5 h, mean): 0.027 µg/mL | concentration at 1 h ([3]; rat, CSF, iv, 1.0 h, mean): 0.153 µg/mL | concentration at 2 h ([3]; rat, CSF, iv, 2.0 h, individual animals, read-out: CSF Concentration): 0.017 µg/mL | concentration at 2 h ([3]; rat, CSF, iv, 2.0 h, mean, read-out: CSF Concentration, Mean): 0.026 µg/mL | concentration at 4 h ([3]; rat, CSF, iv, 4.0 h, mean): 0.012 µg/mL | concentration at 8 h ([3]; rat, CSF, iv, 8.0 h, individual animals, read-out: CSF Concentration): 0.0012 µg/mL | concentration at 8 h ([3]; rat, CSF, iv, 8.0 h, mean, read-out: CSF Concentration, Mean): 0.0015 µg/mL | concentration at 2 h ([3]; rat, CSF, po, 10 mg/kg, PO, 2.0 h, individual animals, read-out: CSF Concentration): 0.0046 µg/mL | concentration at 2 h ([3]; rat, CSF, po, 10 mg/kg, PO, 2.0 h, mean (N=1), read-out: CSF Concentration, Mean): 0.0046 µg/mL

CC(C)[C@H](N)C(=O)OCCOCn1cnc2c(=O)[nH]c(N)nc21 [Valacyclovir, reference compound]
Mean Height ([1]; 0 h): 21,400 | Mean Height ([1]; 0.5 h): 20,700 | Mean Height ([1]; 1 h): 20,500 | Mean Height ([1]; 2 h): 19,800 | Mean Height ([1]; 4 h): 17,700 | % Remaining ([1]; 0 h): 100% | % Remaining ([1]; 0.5 h): 96.7% | % Remaining ([1]; 1 h): 95.8% | % Remaining ([1]; 2 h): 92.5% | % Remaining ([1]; 4 h): 82.7%
